System: rat BNP promoter activity in neonatal rat ventricular myocytes
Experiment: BNP promoter luciferase reporter in neonatal cardiomyocytes with or without endothelin-1
Assay type: cell-based
Conditions: neonatal cardiomyocytes, 24 h
Experimental: Five compounds (GATA4–NKX2-5 synergy inhibitors 1, 61, and 65; the synergy activator 2; and the NKX2-5 activity inhibitor 47c) were selected for studies in neonatal cardiomyocytes, which were treated with endothelin-1 (ET-1), a well-established hypertrophic agonist that activates the gene expression of both ANP and BNP (Figure 4). The myocytes were transfected with construct containing −534/+4 proximal region of rat BNP promoter with GATA4 and NKX2-5 binding sites in front of luciferase before exposure to compounds and ET-1, which was added 1 h after the compounds.
Figure 4 Effects of the compounds 1, 2, 47c, 61, and 65 on BNP gene activation in cardiomyocytes. Neonatal cardiomyocytes were transfected with rat BNP luciferase reporter for 24 h. The cells were exposed to compounds and 1 h later to endothelin-1 (ET-1) for 24 h. The results are expressed as +SD (n = 3 or 9 for DMSO groups). ***P < 0.001 vs DMSO; **P < 0.01 vs DMSO; *P < 0.05 vs DMSO (one-way ANOVA followed by Tukey’s HSD or Welch ANOVA followed by Games–Howell); ^###P < 0.001 vs DMSO, no stimulus (independent samples Student’s t test).
The plasmids expressing mouse GATA4 protein, pMT2-GATA4, and empty pMT2 were gifts from D. B. Wilson (Department of Pediatrics, St. Louis Children’s Hospital, St. Louis, MO).[44] The plasmids expressing mouse NKX2-5 protein, pMT2-NKX2-5, have been described earlier.[28] The luciferase reporter plasmid used in GATA4–NKX2-5 transcriptional synergy assay and NKX transcriptional assay, pGL3-3xHA, contains three high affinity binding sites for NKX2-5.[28] The luciferase reporter plasmid used in GATA transcriptional assay, NP-112, contains tandem GATA-sites and minimal promoter of rat brain natriuretic peptide (BNP) gene.[45] The pGL3-BNP luciferase reporter containing −534/+4 bp rat BNP proximal promoter described previously was used in hypertrophy assay.[46]
The neonatal rat ventricular myocytes were isolated from 2- to 3-day-old Wistar rats, as described earlier.[29],[32] Rat pups were acquired from the experimental animal facility of the University of Helsinki with an internal use license (KEK17-012). Animals were housed in standard conditions, and their handling and all procedures were carried out in accordance with University of Helsinki institutional guidelines, which conform to the National Research Council (U.S.) Guide for the Care and Use of Laboratory Animals.[47] The cells were seeded at 50 000 cells/well in Isoplate-96 microplates (PerkinElmer, Turku, Finland) and cultured for 18–20 h with Dulbecco’s modified Eagle medium (DMEM)/F12 culture medium containing 2.5 mM L-glutamine, supplemented with 100 IU/mL penicillin–streptomycin and 10% fetal bovine serum (all from Gibco, Thermo Scientific). Transfections were carried out for 24 h in serum free media (CSFM; DMEM/F12, 2.5 mg/mL bovine serum albumin, 1 μM insulin, 2.5 mM L-glutamine, 32 nM selenium, 2.8 mM sodium pyruvate, 5.64 μg/mL transferrin, 1 nM T3, and 100 IU/mL PS) by using 100 ng of pGL3-BNP luciferase plasmid per well in a 1:3 ratio of DNA/transfection reagent (Fugene 6, Promega). […] After 24 h, the luminescence was measured as above.
Results from cardiomyocyte experiments are expressed as mean + SD from at least three independent experiments. Data were analyzed using IBM SPSS Statistics 24 software. […] Significance between ET-1 and DMSO samples was analyzed with independent samples Student’s t test. […]

Cc1onc(-c2ccccc2)c1C(=O)N(C1=NC(C)CS1)c1ccc(Cl)cc1 (centres unmarked) [Compound 2]
effect on BNP promoter activity in cardiomyocytes (in words): increased BNP promoter activity

N-[4-(Diethylamino)phenyl]-3-methyl-5-(4-methyl-1,2,3-thiadiazol-5-yl)isoxazole-4-carboxamide [Compound 47c]
effect on BNP promoter activity in cardiomyocytes (in words): increased BNP promoter activity
